Read-outs that look alike come from different tables or passages of the source.
Legend:
Assay in all cases: Kinase binding screen
Conditions in all cases: read-out: Percent Control at 100 nM Compound Concentration
[1] = target: ABL1-nonphosphorylated (Homo sapiens (Human), UniProt P00519)
[2] = target: ALK(L1196M) (Homo sapiens (Human), UniProt Q9UM73, L1196M)
[3] = target: CDKL3 (Homo sapiens (Human), UniProt Q8IVW4)
[4] = target: CSNK2A1 (Homo sapiens (Human), UniProt P68400)
[5] = target: DCAMKL1 (Homo sapiens (Human), UniProt O15075)
[6] = target: EGFR(G719C) (Homo sapiens (Human), UniProt P00533, G719C)
[7] = target: FGFR2 (Homo sapiens (Human), UniProt P21802)
[8] = target: FLT4 (Homo sapiens (Human), UniProt P35916)
[9] = target: GAK (Homo sapiens (Human), UniProt O14976)
[10] = target: KIT (Homo sapiens (Human), UniProt P10721)
[11] = target: LIMK1 (Homo sapiens (Human), UniProt P53667)
[12] = target: MLK2 (Homo sapiens (Human), UniProt Q02779)
[13] = target: MST3 (Homo sapiens (Human), UniProt Q9Y6E0)
[14] = target: NEK5 (Homo sapiens (Human), UniProt Q6P3R8)
[15] = target: OSR1 (Homo sapiens (Human), UniProt O95747)
[16] = target: p38-delta (Homo sapiens (Human), UniProt O15264)
[17] = target: PCTK3 (Homo sapiens (Human), UniProt Q07002)
[18] = target: PDGFRA (Homo sapiens (Human), UniProt P16234)
[19] = target: PIK3C2B (Homo sapiens (Human), UniProt O00750)
[20] = target: PIK3C2G (Homo sapiens (Human), UniProt O75747)
[21] = target: PIK3CA(E545K) (Homo sapiens (Human), UniProt P42336, E545K)
[22] = target: PIK3CA(I800L) (Homo sapiens (Human), UniProt P42336, I800L)
[23] = target: PIK3CD (Homo sapiens (Human), UniProt O00329)
[24] = target: PIP5K1A (Homo sapiens (Human), UniProt Q99755)
[25] = target: RPS6KA5(Kin.Dom.1-N-terminal) (Homo sapiens (Human), UniProt O75582)
[26] = target: RSK3(Kin.Dom.2-C-terminal) (Homo sapiens (Human), UniProt Q15349)
[27] = target: TYRO3 (Homo sapiens (Human), UniProt Q06418)
[28] = target: WNK2 (Homo sapiens (Human), UniProt Q9Y3S1)
Chain of WNK2 (Q9Y3S1 whole entry): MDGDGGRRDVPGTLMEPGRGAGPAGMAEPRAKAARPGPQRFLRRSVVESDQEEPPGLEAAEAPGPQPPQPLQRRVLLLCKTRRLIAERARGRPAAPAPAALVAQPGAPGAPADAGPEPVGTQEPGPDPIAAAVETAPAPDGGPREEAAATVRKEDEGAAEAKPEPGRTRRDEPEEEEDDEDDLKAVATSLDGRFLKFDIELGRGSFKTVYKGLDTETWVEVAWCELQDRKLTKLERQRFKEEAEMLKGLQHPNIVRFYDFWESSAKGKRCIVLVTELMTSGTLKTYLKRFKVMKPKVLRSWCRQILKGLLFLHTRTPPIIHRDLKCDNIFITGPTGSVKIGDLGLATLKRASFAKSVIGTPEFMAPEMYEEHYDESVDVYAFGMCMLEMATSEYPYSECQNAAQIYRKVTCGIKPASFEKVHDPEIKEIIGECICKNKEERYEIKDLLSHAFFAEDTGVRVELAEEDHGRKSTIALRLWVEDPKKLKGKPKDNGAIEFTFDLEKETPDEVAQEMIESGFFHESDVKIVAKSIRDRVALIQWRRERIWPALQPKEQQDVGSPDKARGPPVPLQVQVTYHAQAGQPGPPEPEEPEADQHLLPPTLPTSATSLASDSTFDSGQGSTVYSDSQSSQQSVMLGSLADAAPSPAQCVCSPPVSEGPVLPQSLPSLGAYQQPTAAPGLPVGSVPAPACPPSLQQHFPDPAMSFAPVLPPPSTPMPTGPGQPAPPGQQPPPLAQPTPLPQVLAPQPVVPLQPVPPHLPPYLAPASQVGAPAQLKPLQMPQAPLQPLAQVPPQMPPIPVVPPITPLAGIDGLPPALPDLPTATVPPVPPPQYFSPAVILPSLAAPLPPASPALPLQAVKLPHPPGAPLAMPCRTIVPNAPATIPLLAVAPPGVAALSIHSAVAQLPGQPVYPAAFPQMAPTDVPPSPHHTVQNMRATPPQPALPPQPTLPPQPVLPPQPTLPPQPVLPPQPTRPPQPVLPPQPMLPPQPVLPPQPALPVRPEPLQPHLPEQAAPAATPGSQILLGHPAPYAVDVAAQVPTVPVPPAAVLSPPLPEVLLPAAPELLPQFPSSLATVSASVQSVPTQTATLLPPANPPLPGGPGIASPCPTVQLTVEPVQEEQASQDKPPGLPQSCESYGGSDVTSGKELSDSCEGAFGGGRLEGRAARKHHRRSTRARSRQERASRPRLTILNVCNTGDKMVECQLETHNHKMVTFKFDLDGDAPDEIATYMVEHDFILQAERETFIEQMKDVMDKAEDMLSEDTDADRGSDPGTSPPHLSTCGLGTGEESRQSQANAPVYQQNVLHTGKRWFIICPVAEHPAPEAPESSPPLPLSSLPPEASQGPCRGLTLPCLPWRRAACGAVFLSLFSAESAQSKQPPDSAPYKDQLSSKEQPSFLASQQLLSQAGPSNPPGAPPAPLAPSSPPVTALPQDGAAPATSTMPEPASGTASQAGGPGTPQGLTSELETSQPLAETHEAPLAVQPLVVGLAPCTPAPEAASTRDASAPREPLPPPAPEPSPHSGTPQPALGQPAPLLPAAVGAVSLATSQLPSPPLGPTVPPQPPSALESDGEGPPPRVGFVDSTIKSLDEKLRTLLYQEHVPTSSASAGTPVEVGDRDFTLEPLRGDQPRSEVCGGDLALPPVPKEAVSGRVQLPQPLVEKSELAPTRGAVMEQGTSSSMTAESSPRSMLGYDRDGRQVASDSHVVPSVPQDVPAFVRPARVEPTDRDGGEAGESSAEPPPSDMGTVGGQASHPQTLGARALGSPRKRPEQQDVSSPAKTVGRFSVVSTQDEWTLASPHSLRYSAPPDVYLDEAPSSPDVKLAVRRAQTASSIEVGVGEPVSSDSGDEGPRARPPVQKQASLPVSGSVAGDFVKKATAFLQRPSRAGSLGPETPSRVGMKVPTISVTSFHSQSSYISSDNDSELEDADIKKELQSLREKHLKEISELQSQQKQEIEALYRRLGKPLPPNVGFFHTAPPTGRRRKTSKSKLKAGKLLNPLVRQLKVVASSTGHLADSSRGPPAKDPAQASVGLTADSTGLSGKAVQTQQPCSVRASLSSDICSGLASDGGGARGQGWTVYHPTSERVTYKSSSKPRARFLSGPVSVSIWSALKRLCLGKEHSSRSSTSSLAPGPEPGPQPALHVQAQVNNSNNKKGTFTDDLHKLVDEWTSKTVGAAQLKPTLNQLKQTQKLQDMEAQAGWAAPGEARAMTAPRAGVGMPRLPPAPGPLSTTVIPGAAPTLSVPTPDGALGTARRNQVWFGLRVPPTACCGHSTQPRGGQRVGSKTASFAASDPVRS

Chain of OSR1 (O95747 whole entry): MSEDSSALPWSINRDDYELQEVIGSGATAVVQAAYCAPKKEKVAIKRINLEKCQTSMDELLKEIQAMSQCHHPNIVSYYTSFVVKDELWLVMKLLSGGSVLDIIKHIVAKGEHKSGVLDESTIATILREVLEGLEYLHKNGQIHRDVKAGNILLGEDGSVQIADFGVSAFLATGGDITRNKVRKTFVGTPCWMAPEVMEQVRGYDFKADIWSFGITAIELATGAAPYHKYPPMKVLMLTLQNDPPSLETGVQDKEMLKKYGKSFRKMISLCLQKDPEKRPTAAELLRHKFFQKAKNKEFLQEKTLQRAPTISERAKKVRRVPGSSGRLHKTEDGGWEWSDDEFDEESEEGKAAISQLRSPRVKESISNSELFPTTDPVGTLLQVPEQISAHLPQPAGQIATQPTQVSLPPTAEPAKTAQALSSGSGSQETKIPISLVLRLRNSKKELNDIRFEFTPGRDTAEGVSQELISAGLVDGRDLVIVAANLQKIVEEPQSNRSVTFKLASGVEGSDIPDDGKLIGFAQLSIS
Chain of PIK3CA(E545K) (P42336 whole entry E545K): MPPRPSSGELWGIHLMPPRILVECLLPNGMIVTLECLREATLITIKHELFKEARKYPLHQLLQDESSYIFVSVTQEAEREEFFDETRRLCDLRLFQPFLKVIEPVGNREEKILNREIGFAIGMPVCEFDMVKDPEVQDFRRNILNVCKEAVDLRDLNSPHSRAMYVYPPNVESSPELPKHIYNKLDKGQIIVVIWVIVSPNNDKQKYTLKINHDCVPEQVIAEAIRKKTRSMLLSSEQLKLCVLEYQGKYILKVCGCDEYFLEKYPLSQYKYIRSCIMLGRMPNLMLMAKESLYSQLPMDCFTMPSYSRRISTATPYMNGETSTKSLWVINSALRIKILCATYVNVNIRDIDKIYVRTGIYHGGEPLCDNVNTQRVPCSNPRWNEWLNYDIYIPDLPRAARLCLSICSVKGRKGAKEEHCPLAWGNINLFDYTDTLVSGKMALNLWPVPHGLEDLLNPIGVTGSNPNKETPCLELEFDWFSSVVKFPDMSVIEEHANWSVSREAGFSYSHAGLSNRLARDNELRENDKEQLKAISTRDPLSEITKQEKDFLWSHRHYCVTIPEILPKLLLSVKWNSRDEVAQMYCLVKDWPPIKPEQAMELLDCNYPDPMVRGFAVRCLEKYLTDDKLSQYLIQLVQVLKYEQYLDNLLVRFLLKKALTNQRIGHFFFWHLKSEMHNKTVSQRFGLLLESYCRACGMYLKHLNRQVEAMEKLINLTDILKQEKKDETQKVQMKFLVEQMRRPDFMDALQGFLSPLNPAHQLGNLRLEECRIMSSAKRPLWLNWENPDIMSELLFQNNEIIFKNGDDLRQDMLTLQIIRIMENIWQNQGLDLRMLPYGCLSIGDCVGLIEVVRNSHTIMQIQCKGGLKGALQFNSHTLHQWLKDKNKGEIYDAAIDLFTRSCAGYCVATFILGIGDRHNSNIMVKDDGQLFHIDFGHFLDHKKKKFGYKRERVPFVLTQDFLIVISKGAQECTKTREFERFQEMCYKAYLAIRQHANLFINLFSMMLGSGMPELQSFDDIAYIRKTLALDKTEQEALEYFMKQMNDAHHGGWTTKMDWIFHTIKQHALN
Chain of KIT (P10721 26-976): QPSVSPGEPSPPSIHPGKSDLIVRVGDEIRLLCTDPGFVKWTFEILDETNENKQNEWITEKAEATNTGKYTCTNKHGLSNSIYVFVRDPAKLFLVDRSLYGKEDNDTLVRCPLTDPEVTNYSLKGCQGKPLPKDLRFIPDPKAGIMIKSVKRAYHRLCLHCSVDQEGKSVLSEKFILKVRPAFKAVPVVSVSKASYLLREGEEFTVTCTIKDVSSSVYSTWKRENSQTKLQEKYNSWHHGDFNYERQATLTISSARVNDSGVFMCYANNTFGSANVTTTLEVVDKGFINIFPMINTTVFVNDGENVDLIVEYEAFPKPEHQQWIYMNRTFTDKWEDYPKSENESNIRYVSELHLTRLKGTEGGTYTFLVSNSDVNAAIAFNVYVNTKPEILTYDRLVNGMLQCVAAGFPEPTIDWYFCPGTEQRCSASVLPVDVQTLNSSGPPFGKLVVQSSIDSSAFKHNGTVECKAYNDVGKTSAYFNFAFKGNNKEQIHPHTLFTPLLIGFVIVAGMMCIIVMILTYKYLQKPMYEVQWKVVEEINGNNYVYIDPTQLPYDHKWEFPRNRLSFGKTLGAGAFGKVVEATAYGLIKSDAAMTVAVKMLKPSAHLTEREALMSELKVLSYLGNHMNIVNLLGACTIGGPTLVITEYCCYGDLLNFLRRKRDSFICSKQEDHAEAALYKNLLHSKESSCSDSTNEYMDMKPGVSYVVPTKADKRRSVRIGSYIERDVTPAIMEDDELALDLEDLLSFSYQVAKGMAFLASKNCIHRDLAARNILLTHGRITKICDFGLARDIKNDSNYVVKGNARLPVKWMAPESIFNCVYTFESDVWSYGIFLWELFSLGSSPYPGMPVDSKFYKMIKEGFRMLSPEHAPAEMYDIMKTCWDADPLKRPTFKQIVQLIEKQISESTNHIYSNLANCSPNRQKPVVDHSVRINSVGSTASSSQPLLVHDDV
Chain of RPS6KA5(Kin.Dom.1-N-terminal) (O75582 49-318): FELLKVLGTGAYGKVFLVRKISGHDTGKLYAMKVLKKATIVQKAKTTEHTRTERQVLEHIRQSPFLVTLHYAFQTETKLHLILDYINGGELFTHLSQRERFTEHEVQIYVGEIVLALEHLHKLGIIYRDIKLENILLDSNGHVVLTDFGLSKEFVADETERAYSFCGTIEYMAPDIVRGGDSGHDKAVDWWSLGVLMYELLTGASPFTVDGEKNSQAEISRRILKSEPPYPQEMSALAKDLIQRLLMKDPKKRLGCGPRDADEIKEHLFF

## CN(C[C@@H](O)Cc1ccccc1)C(=O)c1cncc(C#Cc2cnn(C(F)F)c2)c1 [Example 2, (S)-5-((1-(difluoromethyl)-1H-pyrazol-4-yl)ethynyl)-N-(2-hydroxy-3-phenylpropyl)-N-methylnicotinamide]
[1]; ABL1-nonphosphorylated
  remaining activity at 0.1 µM: 72%
[2]; ALK(L1196M)
  remaining activity at 0.1 µM: 100%
[3]; CDKL3
  remaining activity at 0.1 µM: 100%
[4]; CSNK2A1
  remaining activity at 0.1 µM: 98%
[5]; DCAMKL1
  remaining activity at 0.1 µM: 100%
[6]; EGFR(G719C)
  remaining activity at 0.1 µM: 100%
[7]; FGFR2
  remaining activity at 0.1 µM: 100%
[8]; FLT4
  remaining activity at 0.1 µM: 100%
[9]; GAK
  remaining activity at 0.1 µM: 100%
[10]; KIT
  remaining activity at 0.1 µM: 100%
[11]; LIMK1
  remaining activity at 0.1 µM: 100%
[12]; MLK2
  remaining activity at 0.1 µM: 66%
[13]; MST3
  remaining activity at 0.1 µM: 100%
[14]; NEK5
  remaining activity at 0.1 µM: 100%
[15]; OSR1
  remaining activity at 0.1 µM: 88%
[16]; p38-delta
  remaining activity at 0.1 µM: 100%
[17]; PCTK3
  remaining activity at 0.1 µM: 100%
[18]; PDGFRA
  remaining activity at 0.1 µM: 73%
[19]; PIK3C2B
  remaining activity at 0.1 µM: 100%
[20]; PIK3C2G
  remaining activity at 0.1 µM: 85%
[21]; PIK3CA(E545K)
  remaining activity at 0.1 µM: 91%
[22]; PIK3CA(I800L)
  remaining activity at 0.1 µM: 96%
[23]; PIK3CD
  remaining activity at 0.1 µM: 99%
[24]; PIP5K1A
  remaining activity at 0.1 µM: 100%
[25]; RPS6KA5(Kin.Dom.1-N-terminal)
  remaining activity at 0.1 µM: 91%
[26]; RSK3(Kin.Dom.2-C-terminal)
  remaining activity at 0.1 µM: 100%
[27]; TYRO3
  remaining activity at 0.1 µM: 99%
[28]; WNK2
  remaining activity at 0.1 µM: 100%

## CN(C[C@H](Cc1ccccc1)OP(=O)(O)O)C(=O)c1cncc(C#Cc2cnn(C(F)F)c2)c1 [Example 19, (S)-1-(5-((1-(difluoromethyl)-1H-pyrazol-4-yl)ethynyl)-N-methylnicotinamido)-3-phenylpropan-2-yl dihydrogen phosphate]
[1]
  remaining activity at 0.1 µM: 96%
[2]
  remaining activity at 0.1 µM: 100%
[3]
  remaining activity at 0.1 µM: 97%
[4]
  remaining activity at 0.1 µM: 98%
[5]
  remaining activity at 0.1 µM: 100%
[6]
  remaining activity at 0.1 µM: 77%
[7]
  remaining activity at 0.1 µM: 100%
[8]
  remaining activity at 0.1 µM: 100%
[9]
  remaining activity at 0.1 µM: 100%
[10]
  remaining activity at 0.1 µM: 99%
[11]
  remaining activity at 0.1 µM: 100%
[12]
  remaining activity at 0.1 µM: 69%
[13]
  remaining activity at 0.1 µM: 100%
[14]
  remaining activity at 0.1 µM: 94%
[15]
  remaining activity at 0.1 µM: 89%
[16]
  remaining activity at 0.1 µM: 100%
[17]
  remaining activity at 0.1 µM: 100%
[18]
  remaining activity at 0.1 µM: 85%
[19]
  remaining activity at 0.1 µM: 100%
[20]
  remaining activity at 0.1 µM: 78%
[21]
  remaining activity at 0.1 µM: 85%
[22]
  remaining activity at 0.1 µM: 87%
[23]
  remaining activity at 0.1 µM: 85%
[24]
  remaining activity at 0.1 µM: 92%
[25]
  remaining activity at 0.1 µM: 100%
[26]
  remaining activity at 0.1 µM: 100%
[27]
  remaining activity at 0.1 µM: 100%
[28]
  remaining activity at 0.1 µM: 100%

From patent US11767310B2, “Nicotinamide RIPK1 inhibitors” (AbbVie Inc., priority 2021, dated 2023)
